Key:
[1] = test system: MDA-MB-231, SKBR-3 and BT-474 cells; assay: Phase contrast observation of treated cells (Cell Experiment II); assay type: cell-based; details: 1 μg/ml paclitaxel, 72 hour; compared with 10 μg/ml trastuzumab and 1 μg/ml T-DM1
BT-474 cells = assay: Immunofluorescence microscopy of drug localization (Cell Experiment I); assay type: cell-based; details: T-DM1 1 μg/ml or trastuzumab 10 μg/ml for 30 min
Method: (§1) After washing, each of the cells was fixed with 3.7% formaldehyde and permeabilized with 0.1% Triton-X 100. The fixed cells were incubated with rabbit anti-caveolin-1 antibody (1:100 dilution in PBS/0.1% Triton-100/3% BSA) at room temperature for 1 hour and then incubated with Cy3-conjugated anti-rabbit secondary antibodies (1:200 dilution in PBS/0.1% Triton-100/3% BSA) at room temperature for 1 hour.

SKBR-3 cells [2] = assay: as above; assay type: cell-based; details: T-DM1 1 μg/ml or trastuzumab 10 μg/ml for 30 min, co-staining with caveolin-1
Method: as §1

SKBR-3 cells [3] = test system: SKBR-3 cells
Method: Pro-survival protein Bcl-2 expression in each of the cells, culturing under different condition in example 7 at 48 hours, were determined by Western blot.
Using an annexin V detection kit (Invitrogen, ThermoFisher, Waltham, Mass., USA) to label cell surface phosphatidylserine of apoptotic cells and analysis these stained cells by flow cytometry. […] Co-staining images were taken by inverted fluorescence microscope shown in FIG. 15, wherein green color indicates annexin V positive apoptotic cell, red color indicates PI positive necrotic cell. Annexin V stained cells with PI positive staining were excluded as necrotic cells, apoptotic cells with only annexin V staining were counted and divided by total cells as the percentage of apoptosis. […] And, annexin V positive/PI negative apoptosis in FIG. 15 was quantified.

SKBR-3 cells [4] = details: SKBR-3 with caveolin-1 siRNA; T-DM1 72 hours; p<0.05
Method: BT-474 cells were grown on plates in normal growth medium without antibiotics, and Lipofectamine 2000 transfection reagent (Invitrogen, ThermoFisher, Waltham, Mass., USA) was used to induce GFP-tagged caveolin-1 (Addgene, Cambridge, Mass., USA) overexpression. Caveolin-1siRNA (Dharmacon, GE health care, Lafayette, Colo., USA) was used in the knockdown experiment in SKBR-3 cells.

SKBR-3 cells [5] = details: 1 μg/ml T-DM1 vs 10 μg/ml trastuzumab, 72 hour, p<0.01
Method: After culturing each of the cells under different condition in example 7, 0.1 ml of 0.4% trypan blue and deionized water (1:1) was added. Dead cells were stained blue, while live cells remained unstained. Therefore, the number of dead cells could be estimated and cell viability estimated with a hemocytometer. Wherein, the cell mortality was expressed as the percentage of trypan blue-positive cells compared to the total number of cells and the viability percentage was presented by the number of live cells divided by the number of untreated control cells×100.

CC(=O)O[C@H]1C(=O)[C@@]2(C)[C@H]([C@H](OC(=O)c3ccccc3)[C@]3(O)C[C@H](OC(=O)[C@H](O)[C@@H](NC(=O)c4ccccc4)c4ccccc4)C(C)=C1C3(C)C)[C@]1(OC(C)=O)CO[C@@H]1C[C@@H]2O [paclitaxel]
cytotoxicity (phase contrast) [1]: most cytotoxicity

trastuzumab emtansine [T-DM1]
localization of drug in cells (BT-474 cells): localized only in the cell membrane
localization of drug in cells (SKBR-3 cells [2]): colocalized in the SKBR-3 cell membrane and cytosol
Bcl-2 expression level (SKBR-3 cells [3]; 1 μg/ml T-DM1, 48 hours, Western blot): lower level of Bcl-2
drug sensitivity (cell viability) with pan-caspase inhibitor Z-VAD-FMK (SKBR-3 cells [3]; 1 μg/ml T-DM1 plus Z-VAD-FMK): decreased
necrotic cells (PI staining) (SKBR-3 cells [3]; T-DM1 treated): fewer necrotic cells
percentage of apoptosis (annexin V) (SKBR-3 cells [3]; T-DM1 treated): increased percentage of apoptosis
T-DM1 efficacy on CAV-1 knockdown (SKBR-3 cells [4]): significantly reduced T-DM1 efficacy
cell sensitivity (cell viability) versus trastuzumab (SKBR-3 cells [5]): significantly more sensitive

From US20170269061A1, “METHOD FOR ASSESSING SENSITIVITY OF A TARGET DRUG IN VITRO AND A BIOMARKER USED THEREOF” (Tunghai University, priority 2016, published 2017)
